Results on 1 sequence are retold here after US20140196172A1, “Organelle Targeting Nanocarriers” (Her Majesty the Queen in Right of Canada, as Repre sented …, priority 2011, published 2014).

Test [1] concerns chloroplasts of triticale protoplasts. As to the kind of experiment: qRT-PCR of gfp mRNA, protoplasts transfected with pWCaadA16GFP. Format: cell-based. The note with it: gfp reporter construct. An excerpt: FIG. 20 is a plot showing the level of expression (fold increase, average of 4 replicates) of GFP in triticale protoplasts transfected with the pWCaadA16GFP plasmid in the presence of cTP1 (SEQ ID NO: 6), cTP2 (SEQ ID NO: 7), cTP3 (SEQ ID NO: 8), cTP4 (SEQ ID NO: 9) or cTP5 (SEQ ID NO: 10) compared to the level of expression (fold increase) of the internal control elongation factor 1a (EF1a), as measured by quantitative real time PCR of mRNA levels.
(§1) Wheat chloroplast aadA16GFP reporter plasmid (pWCaadA16GFP, FIG. 12) is a 4212 base pair wheat specific plastid transformation vector, which targets insertions into the tml-tmA inverted repeat regions of the Triticum aestivum plastid genome at nucleotides 92850-93727 and 93794-94671 (GenBank accession No. AB042240.3). A multiple cloning site is introduced following the tml target insertion sequence. The selection marker gene is an organelle codon specific aad-gfp fusion gene, which facilitates a dual selection method of spectinomycin resistance through an aadA derivative and visual detection by GFP fluorescence (GenBank accession No. ABX39486; Khan and Maliga, Nat. Biotechnol. (1999 September) 17(9): 910-5). The selection marker gene is driven by the Triticum aestivum plastid genome promoter (psbA) at nucleotides 1282-1153 (GenBank accession No. AB042240.3). The aad-gfp fusion gene is terminated with the rice psbA terminator sequence derived from chloroplast transformation vector pVSR326 nucleotides 4014-4387 (GenBank accession No. AF527485.1).
The dsDNA construct (pWMaadA16GFP for mitochondrial expression or pWCaadA16GFP for expression in chloroplasts) is combined with the mTP (for mitochondrial expression) or cTP (for expression in chloroplasts) in a final volume of 100 μl of CPW solution. For experiments using mTP1 (SEQ ID NO: 1), mTP2 (SEQ ID NO: 2), mTP3 (SEQ ID NO: 3), or mTP5 (SEQ ID NO: 5), peptides (scaled up from 100 ng, at four times the concentration needed to cause a DNA shift in the gel mobility shift assay (Table 7)) are combined with the pWMaadA16GFP construct (5 μg). For experiments using the remaining oTPs, peptides (30 μg) are combined with the appropriate dsDNA construct (1.5 μg). The mixture is incubated for 10 minutes at room temperature, then incubated with isolated triticale mesophyll protoplasts (500 μl, 10^6 protoplasts/ml, prepared as described in Example 2) for 1 h in the dark at room temperature. CPW solution (500 μl) is added and the mixture is incubated in the dark for 24 h. The cells are imaged using confocal microscopy, as described in Example 2, using MitoTracker® Orange staining to visualize mitochondria and chlorophyll autofluorescence to visualize chloroplasts.
(§2) cDNA is generated using a First Strand Synthesis kit (Invitrogen). RNA (1 μg) is added to each sample and the manufacturer's protocol for synthesis followed, with the exception that the volume of the reaction mixture is increased from 20 μl to 30 μl. A negRT sample containing all reagents but no RNA is included in the cDNA synthesis as a negative control.
Standard curves are generated for both elongation factor 1a (EF1a) (internal control) and green fluorescent protein (GFP) (test) genes. The EF1a curve is generated by pooling 6 μl of each cDNA sample (excluding the negRT control), then carrying out a serial dilution of 0.5 for 5 more dilutions. […]
(§3) Real time PCR reactions are performed using QuantiTect™ SYBR™ Green PCR Master Mix (Qiagen) in a 20 μl reaction volume. […]

The subject of test [2] is proplastids of triticale microspores. The experiment in a line: qRT-PCR of gfp mRNA, microspores transfected with pWCaadA16GFP. It counts as cell-based. The note with it: gfp reporter construct.
Excerpt: FIG. 18 is a plot showing the level of expression (fold increase, average of 4 replicates) of GFP in triticale microspores transfected with the pWCaadA16GFP plasmid in the presence of cTP1 (SEQ ID NO: 6), cTP2 (SEQ ID NO: 7), cTP3 (SEQ ID NO: 8), cTP4 (SEQ ID NO: 9) or cTP5 (SEQ ID NO: 10) compared to the level of expression (fold increase) of the internal control elongation factor 1a (EF1a), as measured by quantitative real time PCR of mRNA levels;
as §1
The dsDNA construct (pWMaadA16GFP for mitochondrial expression or pWCaadA16GFP for expression in chloroplasts) is combined with the mTP (for mitochondrial expression) or cTP (for expression in chloroplasts) in the amounts used in the protoplast transformation experiments described above in a final volume of 100 μl of NBP-99 solution. The mixture is incubated for 10 minutes at room temperature, then incubated with isolated triticale microspores (500 μl, 10^6 microspores/ml, prepared as described in Example 2) for 1 h in the dark at room temperature. NBP-99 solution (500 μl) is added and the mixture is incubated in the dark for 24 h. The cells are imaged using confocal microscopy, as described in Example 2, using MitoTracker® Orange staining to visualize mitochondria.
Microspores are disrupted using a cleaned ceramic bead and aggressive shaking as the tissue is thawing. RLT buffer/B-Me (450 μl) is added and the sample is vortexed. The sample is heated at 55° C. for 1 minute and vortexed again. RNA is extracted using an RNeasy™ Plant Mini Kit (Qiagen), incorporating on-column DNase I digestion into the protocol. The final elution volume is 40 μl. RNA is assessed using both agarose gel […] (to ensure RNA is intact) and spectrophotometry (for quantification).
as §2
Standard curves are generated for both elongation factor 1a (EF1a) (internal control) and green fluorescent protein (GFP) (test) genes. […]
as §3

“MKNPPSSFASGFGIR (listed as Oryza sativa) [cTP3]”: the “GFP expression by chloroplasts confirmed by qRT-PCR” value in test [1] was “GFP is expressed”. For the same sequence, in test [2], the “GFP expression by proplastids confirmed by qRT-PCR” value was “GFP is expressed”.
